Here are results for 20 compounds from patent US9561228B2 (Celgene Avilomics Research, Inc., priority 2013, dated 2017).

One assay addresses T1, MEK1 activated ERK1 (Homo sapiens, UniProt P27361).
T1 construct: purchased Millipore (Billerica, Mass.) 14-439-K
Description: Omnia continuous-read kinase assay for potency against MEK1 activated ERK1. To be noted: MEK1 activated ERK1, ATP at KM; read-out: ERK1 Omnia WT ATP KM IC50. It is filed as biochemical. From the text:
Omnia Assay Protocol for Potency Assessment Against MEK1 Activated ERK1:
The protocol below describes continuous-read kinase assays to measure potency of compounds against activated ERK1 enzyme. The mechanics of the assay platform are best described by the vendor (Invitrogen, Carlsbad, Calif.) on their website at the following URL: invitrogen.com/site/us/en/home.html.
Briefly, a 1.25× stock of ERK1 enzyme (14-439-K) from Millipore (Billerica, Mass.), 5×ATP (AS001A) and ST17-Sox conjugated peptide substrate (KNZ1171C) were prepared in 1× kinase reaction buffer consisting of 20 mM Tris, pH 7.5, 5 mM MgCl2, 1 mM EGTA, 5 mM β-glycerophosphate, 5% glycerol (10× stock, KB002A) and 0.2 mM DTT. 10 μL of ATP/ST17-sox peptide substrate mix was combined with 0.5 μL volume of 100% DMSO and serially diluted compounds were prepared in 100% DMSO in a Corning (#3574) 384-well, white, non-binding surface microtiter plate (Corning, N.Y.). Kinase reactions were started with the addition of 40 μL of ERK1 solution and monitored every 71 seconds for 30-240 minutes at λex360/λem485 in a Synergy plate reader from BioTek (Winooski, Vt.). At the conclusion of each assay, progress curves from each well were examined for linear reaction kinetics and fit statistics (R^2, 95% confidence interval, absolute sum of squares). Initial velocity (0 minutes to ˜30+ minutes) from each reaction was determined from the slope of a plot of relative fluorescence units vs time (minutes or seconds) and then plotted against inhibitor concentration to estimate ^AppIC50 from log [Inhibitor] vs Response, Variable Slope model in GraphPad Prism from GraphPad Software (San Diego, Calif.).
[Reagent] used in optimized protocol:
[ERK1]=4 nM, [ATP]=50 μM, [ST17-Sox]=10 μM (ATP ^appKM 48 μM)
The results of this assay show the degree of inhibition of ERK activity, which is a direct measurement of inhibition of ERK activity. Results from this assay are reported in Table A under the column “ERK1 Omnia WT ATP KM IC50 (nM).”

Assay [1] deals with ERK1/2 phosphorylation of p90RSK in HT29 cells. The experiment in a line: pRSK MSD Assay in HT29 cells. The format is cell-based. To be noted: Homo sapiens, HT-29, read-out: ERK1/ERK2 PRSK MSD HT29 EC50. The procedure:
The protocol below describes an assay to measure the kinase activity of ERK1/2 to phosphorylate a substrate, p90RSK, in the presence or absence of a test compound. This experiment was conducted using a Mesoscale Discovery plate. The day before the assay, HT29 cells were split and plated at 50,000 cells/well in complete growth media. After allowing cells to adhere, the media was removed and replaced with media containing 0.1% FBS and incubated overnight. Blank MSD plates (Mesoscale Discovery, Cat # L15XA3) were coated with 25 μl/well RSK capture antibody (BD Biosciences, Cat. #610226) and incubated at 4° C. overnight, then blocked with 150 μl of 3% BSA solution. The next day, the media from the cell culture plate was removed and replaced with 100 μl of media containing a test compound and incubated for 120 minutes at 37° C. The media was removed and replaced with 55 μl per well of lysis buffer with protease inhibitors (Roche Biosciences, Cat. #11836170001) and phosphatase inhibitors (Sigma-Aldrich, Cat. # P-0044 and P-5726), followed by incubation at 4° C. for 30 minutes. 50 μl of lysate was transferred to a blocked MSD plate, followed by incubation at room temperature for 2 hours under constant shaking. The plate was washed 3 times with MSD wash buffer (Mesoscale Discovery, Cat. # R617TX), and 25 μl/well phospho-RSK (pRSK) detection antibody (Cell Signaling Technology, Cat. #9335) was added with Sulfo-tagged detection antibody (Mesoscale Discovery, Cat. # R32AB-1) diluted in 1% BSA in MSD wash buffer. This mixture was incubated for 1 hour at room temperature under constant shaking. The plate was washed 3 times, and 150 μl 1×MSD read buffer was added, followed by signal detection in an MSD plate reader.

T1 sequence (P27361 whole entry): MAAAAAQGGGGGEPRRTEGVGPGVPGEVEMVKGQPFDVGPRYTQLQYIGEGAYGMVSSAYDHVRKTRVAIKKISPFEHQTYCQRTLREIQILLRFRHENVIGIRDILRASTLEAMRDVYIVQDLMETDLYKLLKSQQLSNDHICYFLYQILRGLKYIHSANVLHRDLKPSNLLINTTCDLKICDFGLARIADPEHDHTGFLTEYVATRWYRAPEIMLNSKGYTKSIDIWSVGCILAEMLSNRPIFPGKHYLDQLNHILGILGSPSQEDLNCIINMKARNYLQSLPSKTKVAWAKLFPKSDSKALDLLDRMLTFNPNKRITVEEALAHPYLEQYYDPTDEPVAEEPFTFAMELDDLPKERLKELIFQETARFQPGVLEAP

The term IC50 denotes the concentration at which inhibition is half-maximal. In the case of `C/C=C/C(=O)Nc1cc(F)ccc1Nc1nc(N[C@@H]2CCC[C@H](C(N)=O)C2)ncc1C(F)(F)F` (racemic) [Compound I-6, Rac-(E)-3-((4-((2-(but-2-enamido)-4-fluorophenyl)amino)-5-(trifluoromethyl)pyrimidin-2-yl)amino)-cis-cyclohexanecarboxamide], the IC50 at MEK1 activated ERK1 was more than 1000 nM. Moreover, the EC50 in assay [1] is more than 1000 nM.

In the case of `C=CC(=O)Nc1ccccc1Nc1nc(N[C@@H]2CCC[C@H](C(=O)O)C2)ncc1C(F)(F)F` (racemic) [Compound I-14, Rac-3-((4-((2-acrylamidophenyl)amino)-5-(trifluoromethyl)pyrimidin-2-yl)amino)-cis-cyclohexanecarboxylic acid], the IC50 at MEK1 activated ERK1 was 101 to 500 nM. The EC50 in assay [1] was more than 1000 nM.

On to `CC(=O)N1CCC[C@H](Nc2ncc(C(F)(F)F)c(NC3C4C=CC(C4)C3C(=O)NC#N)n2)C1` (mixture of isomers) [Compound I-25, Rac-3-((2-(((S)-1-acetylpiperidin-3-yl)amino)-5-(trifluoromethyl)pyrimidin-4-yl)-cis-amino)-N-cyanobicyclo[2.2.1]hept-5-ene-2-carboxamide], for which, at MEK1 activated ERK1, the IC50 is more than 1000 nM. In addition, the EC50 in assay [1] was more than 1000 nM.

Take `C=CC(=O)N(C)c1ccccc1Nc1nc(N[C@@H]2CCC[C@H](C(=O)NOC)C2)ncc1Cl` (racemic) [Compound I-106, Rac-cis-3-((5-chloro-4-((2-(N-methylacrylamido)phenyl)amino)pyrimidin-2-yl)amino)-N-methoxycyclohexanecarboxamide]: the IC50 at MEK1 activated ERK1 is more than 1000 nM. The EC50 in assay [1] is more than 1000 nM.

As for `C=C(C)C(=O)Nc1cc(F)ccc1Nc1nc(N[C@@H]2CCC[C@H](C(N)=O)C2)ncc1Cl` (racemic) [Compound I-114, Rac-cis-3-((5-chloro-4-((4-fluoro-2-methacrylamidophenyl)amino)pyrimidin-2-yl)amino)cyclohexanecarboxamide], the IC50 on MEK1 activated ERK1 was more than 1000 nM. For the same compound, in assay [1], the EC50 was more than 1000 nM.

As for `C=CC(=O)N[C@H]1CCCC[C@@H]1Nc1nc(N[C@H]2CCCN(C(=O)CO)C2)ncc1Cl` (racemic) [Compound I-141, Rac-N-(2-((5-chloro-2-(((R)-1-(2-hydroxyacetyl)piperidin-3-yl)amino)pyrimidin-4-yl)amino)-trans-cyclohexyl)acrylamide], the IC50 at MEK1 activated ERK1 was 101 to 500 nM. Further, in assay [1], the EC50 is 501 to 999 nM.

Turning to `C=CC(=O)N[C@@H]1CCCC[C@H]1Nc1nc(Nc2cc(C(=O)NOC)ccc2C)ncc1Cl` (racemic) [Compound I-188, Rac-trans-3-((4-((2-acrylamidocyclohexyl)amino)-5-chloropyrimidin-2-yl)amino)-N-methoxy-4-methylbenzamide], the concentration for half-maximal inhibition (IC50) at MEK1 activated ERK1 was more than 1000 nM. For the same compound, the EC50 in assay [1] was more than 1000 nM.

In the case of `C=CC(=O)N[C@@H]1CCCC[C@H]1Nc1nc(Nc2cc(C(N)=O)ccc2C)ncc1Cl` (racemic) [Compound I-226, Rac-trans-3-((4-((2-acrylamidocyclohexyl)amino)-5-chloropyrimidin-2-yl)amino)-4-methylbenzamide], on MEK1 activated ERK1, the IC50 is 501 to 999 nM. Moreover, the EC50 in assay [1] was 501 to 999 nM.

With `CC(=O)N1CCC[C@H](Nc2ncc(C(F)(F)F)c(Nc3ccccc3NC(=O)CCl)n2)C1` [Compound I-30, (S)—N-(2-((2-((1-Acetylpiperidin-3-yl)amino)-5-(trifluoromethyl)pyrimidin-4-yl)amino)phenyl)-2-chloroacetamide], the IC50 at MEK1 activated ERK1 lay within 101 to 500 nM. In addition, the EC50 in assay [1] was more than 1000 nM.

On to `O=C(CCl)Nc1ccccc1Nc1nc(N[C@H]2CCCN(C(=O)CCl)C2)ncc1C(F)(F)F` [Compound I-31, (S)-2-Chloro-N-(2-((2-((1-(2-chloroacetyl)piperidin-3-yl)amino)-5-(trifluoromethyl)pyrimidin-4-yl)amino)phenyl)acetamide], for which the IC50 at MEK1 activated ERK1 was in the range of 501 to 999 nM. The EC50 in assay [1] was more than 1000 nM.

Consider `C#CC(=O)N[C@@H]1CCCC[C@H]1Nc1nc(N[C@H]2CCCN(C(=O)CO)C2)ncc1C(F)(F)F` [Compound I-34, N-((1R,2R)-2-((2-(((S)-1-(2-Hydroxyacetyl)piperidin-3-yl)amino)-5-(trifluoromethyl)pyrimidin-4-yl)amino)cyclohexyl)propiolamide], for which the IC50 at MEK1 activated ERK1 lay within 101 to 500 nM. Moreover, the EC50 in assay [1] is more than 1000 nM.

As for `O=C(CCl)N[C@@H]1CCCC[C@H]1Nc1nc(N[C@H]2CCCN(C(=O)CO)C2)ncc1C(F)(F)F` [Compound I-35, 2-Chloro-N-((1R,2R)-2-((2-(((S)-1-(2-hydroxyacetyl)piperidin-3-yl)amino)-5-(trifluoromethyl)pyrimidin-4-yl)amino)cyclohexyl)acetamide], the IC50 on MEK1 activated ERK1 was 101 to 500 nM. Moreover, in assay [1], the EC50 is more than 1000 nM.

On to `C=CC(=O)Nc1ccccc1Nc1nc(Nc2ccc(N(CCCNC(=O)OC(C)(C)C)C(C)=O)cc2C(F)(F)F)ncc1Cl` [Compound I-169, tert-butyl(3-(N-(4-((4-((2-acrylamidophenyl)amino)-5-chloropyrimidin-2-yl)amino)-3-(trifluoromethyl)phenyl)acetamido)propyl)carbamate], for which, on MEK1 activated ERK1, the IC50 is 501 to 999 nM.

As for `C=CC(=O)Nc1ccccc1Nc1nc(Nc2ccc(N(CCCNC(=O)OC(C)(C)C)C(C)=O)cc2OC)ncc1Cl` [Compound I-173], the IC50 on MEK1 activated ERK1 was in the range of 501 to 999 nM.

Regarding `C=CC(=O)Nc1cc(OC)ccc1Nc1nc(Nc2ccc(N(CC)C(C)=O)cc2OC)ncc1Cl` [Compound I-175, N-(2-((5-chloro-2-((4-(N-ethylacetamido)-2-methoxyphenyl)amino)pyrimidin-4-yl)amino)-5-methoxyphenyl)acrylamide], at MEK1 activated ERK1, the IC50 was in the range of 101 to 500 nM.

With `C=CC(=O)Nc1cc(OC)ccc1Nc1nc(Nc2ccc(N(CC)C(C)=O)cc2C(F)(F)F)ncc1Cl` [Compound I-176, N-(2-((5-chloro-2-((4-(N-ethylacetamido)-2-(trifluoromethyl)phenyl)amino)pyrimidin-4-yl)amino)-5-methoxyphenyl)acrylamide], the IC50 at MEK1 activated ERK1 was in the range of 501 to 999 nM.

With `C=CC(=O)Nc1ccccc1Nc1nc(Nc2ccc(N3CCC[C@H]3C(N)=O)cc2C#N)ncc1Cl` [Compound I-177, (S)-1-(4-((4-((2-acrylamidophenyl)amino)-5-chloropyrimidin-2-yl)amino)-3-cyanophenyl)pyrrolidine-2-carboxamide], at MEK1 activated ERK1, the IC50 lay within 101 to 500 nM.

With `C=CC(=O)Nc1cc(OC)ccc1Nc1nc(Nc2ccc(N3CCC[C@@H]3CO)cc2C#N)ncc1Cl` [Compound I-181, (R)—N-(2-((5-chloro-2-((2-cyano-4-(2-(hydroxymethyl)pyrrolidin-1-yl)phenyl)amino)pyrimidin-4-yl)amino)-5-methoxyphenyl)acrylamide], on MEK1 activated ERK1, the IC50 lay within 501 to 999 nM.

Regarding `C=CC(=O)Nc1ccccc1Nc1nc(Nc2ccc(N3CCN(C(=O)CCCC(=O)NCCCOCCOCCOCCCNC(=O)CCCC[C@@H]4SC[C@@H]5NC(=O)N[C@@H]54)CC3)cc2OC(F)F)ncc1Cl` [Compound I-306, 5-(4-(4-((4-((2-acrylamidophenyl)amino)-5-chloropyrimidin-2-yl)amino)-3-(difluoromethoxy)phenyl)piperazin-1-yl)-5-oxo-N-(15-oxo-19-((3aS,4S,6aR)-2-oxohexahydro-1H-thieno[3,4-d]imidazol-4-yl)-4,7,10-trioxa-14-azanonadecyl)pentanamide], the IC50 at MEK1 activated ERK1 was in the range of 101 to 500 nM.

On to `C=CC(=O)Nc1ccccc1Nc1nc(Nc2ccc(N(CC)C(C)=O)cc2C(F)(F)F)ncc1Cl` [Compound I-320], for which the IC50 at MEK1 activated ERK1 was 501 to 999 nM.
